From patent US5968526A, “T cell epitopes of the major allergens from Dermatophagoides (house dust mite)” (Immulogic Pharamaceutical Corporation, priority 1995, dated 1999)

How the values were obtained:
[1] = system: T cell lines primed in vitro to Der p I; assay: secondary proliferation of Der p I-primed T cell lines (Examples V, VII, XI); assay type: cell-based, human; conditions: for T cell response to selected Der p I peptides: 33 positive experiments, FIG. 13; for positivity index (P.I.): mean S.I. × percent responders, 33 patients
Method: 10^7 PBMC from individual 543 were cultured in 10 ml RPMI-1640 containing 5% pooled human AB serum and supplemented with glutamine, penicillin, streptomycin and HEPES buffer in the presence of 20 μg/ml purified native Der p I/ml at 37° C. for 7 days. Viable cells were then purified by Ficoll-Hypaque centrifugation and cultured for 2 additional weeks in RPMI-1640/5% AB serum containing 5 units recombinant human IL-2/ml and 5 units recombinant human IL-4/ml. The resting T cells were then tested in a secondary proliferation assay to assess T cell responses to various house dust mite proteins and peptides. For assay, 2×10^4 resting T cells were cultured in 200 μl of RPMI-1640/5% AB serum for 3 days at 37° C. in the presence of 2×10^4 autologous Epstein-Barr virus transformed B cells (20,000 Rads) as antigen presenting cells with various concentrations of purified native Der p I or synthetic Der p I peptides. Each well then received 1 μCi tritiated thymidine for 16 hours. The counts incorporated were collected onto glass fiber filters and processed for liquid scintillation counting. Medium alone, acting as negative control, contained no allergen or peptide. The results of this experiment indicate that this particular patient responds with an S.I. of at least 2.0 to several peptides derived from the Der p I protein, including DP I-1, DP I-2, DP I-4, DP I-11, DP I-5, DP I-13, DP I-15, DP I-6.1, DP I-8, DP I-9, DP I-16, DP I-10 and DP I-17 (data not shown).
The above procedure was followed with a number of other house dust mite allergic individuals except a) in individual cases, the length of time of cultivation with IL-2 and IL-4 varied; b) in individual cases, the T cells were primed with either purified native (N) or recombinant (R) Der p I protein at either 20 μg/ml or 10 μg/ml; and c) in individual cases, x-irradiated (3500 Rads) autologous PBMC were used as antigen presenting cells in the secondary proliferation assay.
Individual results were considered positive and used if the individual responded to the Der p I protein and at least one peptide derived from Der p I at an S.I. of 2.0 or greater. The resting T cell lines primed with recombinant or native Der p I-stimulated PBMC were tested for reactivity to synthetic Der p I peptides. The maximum response for each peptide in a titration of the antigen is expressed as the T cell stimulation index (S.I.). The S.I. is the counts-per-minute (CPM) incorporated by cells in response to the peptide divided by the CPM incorporated by cells in medium only. […] However, only individual S.I. values greater than or equal to 2.0 (a response two-fold or greater over background), referred to herein as "positive" results, were used in calculating mean T cell stimulation indices for each peptide for the patient or group of patients tested. […] The T cell stimulation index is calculated by: [formula]
The bar represents the cumulative rank of the peptide response in the group of patients. To determine the cumulative rank, the 5 peptides with the highest S.I. in each individual were determined and assigned a numerical rank in descending order, with 5 representing the strongest response. The ranks for each peptide were then summed in the group of patients to determine the cumulative rank for the peptide. […] Given the percent positive and the mean T cell stimulation index, the positivity index (P.I.) for each peptide can be calculated.
The Der p I and Der f I proteins are very homologous (81% identity). Thus, experiments, similar to those of Example V, were carried out to determine the T cell responses of Der p I primed T cell lines when challenged with various Der p I peptides and substantially matching […].
The results of T cell studies using selected peptides derived from the Der p I, the Der f I, the Der p II and the Der f II proteins are shown in FIGS. 13-18a-d. […]

[2] = system: T cell lines primed in vitro with Der p I; assay: T cell proliferation with fine map and modified Group I peptides (Example XIV); assay type: cell-based, human; conditions: FIGS. 31a-b
Method: (§1) Long term T cell lines were established by stimulation of 2×10^6 PBL/ml in bulk cultures of complete medium (RPMI-1640, 2 mM L-glutamine, 100 U/ml penicillin/streptomycin, 5×10^-5 M 2-mercaptoethanol, and 10 mM HEPES supplemented with 5% heat inactivated human AB serum) with 30 μg/ml of purified native Der p I or Der p II for 5-6 days at 37° C. in a humidified 5% CO2 incubator to select for house dust mite protein allergen reactive T cells. This amount of priming antigen was determined to be optimal for the activation of T cells from house dust mite allergic patients. Viable cells were purified by LSM centrifugation and cultured in complete medium supplemented with 5 units recombinant human IL-2/ml and 5 units recombinant human IL-4/ml for up to three weeks until the cells no longer responded to lymphokines and were considered "rested". The ability of the T cells to proliferate to selected peptides, purified Der p I or Der p II, or positive (PHA) controls or negative controls (medium only) was then assessed. For assay, 2×10^4 rested cells were restimulated in the presence of 2×10^4 autologous Epstein-Barr virus (EBV)-transformed B cells (prepared as described below) (gamma-irradiated with 25,000 RADS) or with 5×10^4 autologous PBMs (gamma-irradiated with 3500 RADS), with 2-50 μg/ml of purified native Der p I or Der p II in a volume of 200 μl complete medium in duplicate or triplicate wells in 96-well round bottom plates for 3 days. Each well then received 1 μCi tritiated thymidine for 16-20 hours. The counts incorporated were collected onto glass fiber filter mats and processed for liquid scintillation counting. […] The titrations were used to optimize the dose of peptides in T cell assays.
(§2) The maximum response in a titration of each peptide is expressed as the stimulation index (S.I.). The S.I. is the counts per minute (CPM) incorporated by cells in response to peptide, divided by the CPM incorporated by cells in medium only. […] The positive results were used in calculating mean stimulation indices for each peptide for the individual patient tested.
(§3) The above procedure was followed with 18 patients in the studies using peptides derived from Der p I and Der f I (FIGS. 31a-b), and 21 patients in the studies with Der p II peptides (FIGS. 32a-b). Individual patient results were used in calculating the mean S.I. for each peptide if the patient responded to the Der p I or Der p II protein at an S.I. of 2.0 or greater and the patient responded to at least one peptide derived from a house dust mite allergen at an S.I. f 2.0 or greater. A summary of positive experiments from the patients tested is shown in FIGS. 32a and 32b and FIGS. 33a and 33b. The bars represent the positivity index. […] In parenthesis above each bar are the mean stimulation indices for each peptide or protein for the group of patients tested.
(§4) Autologous EBV-transformed cell lines were γ-irradiated with 25,000 Rad and used as antigen presenting cells in secondary proliferation assays and secondary bulk stimulations. These EBV-transformed cell lines were made by incubating 5×10^6 PBL with 1 ml of B-59/8 Marmoset cell line (ATCC CRL1612, American Type Culture Collection, Rockville, Md.) conditioned medium in the presence of 1 μg/ml phorbol 12-myristate 13-acetate (PMA) at 37° C. for 60 minutes in 12×75 mm polypropylene round-bottom Falcon snap cap tubes (Becton Dickinson Labware, Lincoln Park, N.J.). These cells were then diluted to 1.25×10^6 cells/ml in RPMI-1640 as described above except supplemented with 10% heat-inactivated fetal bovine serum and cultured in 200 μl aliquots in flat bottom culture plates until visible colonies were detected. They were then transferred to larger wells until the cell lines were established.

human IgE = assay: direct binding ELISA of IgE to mite allergen proteins and peptides; conditions: plasma of 19 mite-allergic patients and pool of 18; Example XV
Method: The coating antigens were removed and the wells are blocked with 0.5% gelatin in PBS, 300 μl/well for 2 hours at room temperature. Pooled human plasma (a mix of plasma samples from 20 patients that were skin test positive for commerical mite extract) was serially diluted with PBS-Tween 20 (PBS with 0.05% nonionic detergent Tween-20 Sigma, St. Louis, Mo.) and 100 μl/well a.backslash.was added and incubated overnight at 4° C. (plasma dilutions were tested in duplicate). The second antibody (biotinylated goat anti-Human IgE, 1:1000, Kirkegaard & Perry Laboratories Inc, Gaithersburg, Md.), was added at 100 μl/well for one hour at room temperature. This solution was removed and streptavidin-HRPO, 1:10000, (Southern Biotechnology Associates, Inc., Birmingham, Ala.) was then added at 100 μl/well for one hour at room temperature (all wells are washed three times with PBS-Tween between each incubation step). TMB Membrane Peroxidase Substrate system (Kirkegaard & Perry Laboratories) was freshly miced, and added at […]. The color was allowed to develop for 2-5 minutes. The reaction was stopped by the addition of […] of 1M phosphoric acid. Plates were read on a Microplate IL310 Autoreader (Biotech Instruments, Winooski, Vt.) with a 450 nm filter. The absorbance levels of duplicate wells were averaged. The order of coating antigens listed vertically in these figure legends corresponds in orDer from left to right to the coating antigens listed for each histogram.
The antigen preparation that was used as a positive control was a mixture of the four major biochemically purified mite allergens (term PMA for Purified Mite Allergen); Der f I, Der f II, Der p I and Der p II. The stock was generated at a concentration of 100 μgs of each protein per millimeter or 400 μgs total protein/ml. This preparation was used on each coated ELISA plate.

[3] = system: T cell lines primed in vitro with Der p II; assay: T cell proliferation with fine map and modified Group II peptides (Example XIV); assay type: cell-based, human; conditions: for positive T cell responses, modified peptides: 21 T cell lines, Der p II primed, FIG. 32a; for T cell response, Group II peptides: FIGS. 32a-b
Method: as §1, §2, §3, §4

| Substance | T cell response, Group I peptides [2] | IgE binding (ELISA), modified peptides (human IgE) | positive T cell responses, modified peptides [3] | T cell response, Group II peptides [3] | further results |
| --- | --- | --- | --- | --- | --- |
| DF I-22.4: Der f I peptide (VAATESAYLAYRNTSLDLSEQELVDCASQ) | positive responses | – | – | – | T cell response to selected Der f I peptides ([1]; Der p I primed, 30 positive experiments, FIG. 15a): respond significantly |
| DP I-11.1: Der p I peptide, native sequence (HRNQSLDLAEQELVDCASQHGC) | positive response | – | – | – | difference in mean S.I. or percentage of positive responses, original vs additional (native sequence) peptides ([1]; DP I-11/12 vs DP I-11.1/12.1): no significant difference |
| DP I-21.1: Der p I peptide (TNACSINGNAPAEIDLRQMRTVTPIRMQ) | positive response | – | – | – | T cell response to selected Der p I peptides [1]: respond significantly; positivity index (P.I.) [1]: at least 150 |
| DP I-22.4: Der p I peptide (VAATESAYLAHRNQSLDLAEQELVDCASQ) | positive responses | – | – | – | – |
| DP I-23.1: Der p I peptide (EYIQHNGVVQESYYRYVAREQCRRPNAQ) | positive T cell studies | – | – | – | T cell response to selected Der p I peptides [1]: respond significantly; ranked sum of peptide responses ([1]; FIG. 15b, preferred peptides): highest ranked sum; positivity index (P.I.) [1]: at least 150 |
| DP I-26.1: Der p I peptide (IIGIKDLDAFRHYDGRTIIQRDNGYQ) | positive T cell studies | – | – | – | T cell response to selected Der p I peptides [1]: respond significantly; positivity index (P.I.) [1]: at least 150 |
| DP II-20.8: modified Der p II peptide (DQVDVKDCANHEIKKVLVPGCHGSEPK) | – | No plasma samples contained IgE | all 21 T cell lines responded positively | – | – |
| DP II-20.10: modified Der p II peptide (DQVDVKDCANHEIKKVLVPGCHGSEG) | – | No plasma samples contained IgE | all 21 T cell lines responded positively | positive T cell studies | – |
| DP II-20.11: modified Der p II peptide; printed with the same SEQ ID NO as DP II-20.9 (DQVDVKDCANHEIKKVLVPGCHGSE) | – | No plasma samples contained IgE | all 21 T cell lines responded positively | positive T cell studies | – |
| DP II-22.19: DKELEAVFEANQNTKTAKIEIKAD | – | No plasma samples contained IgE | all 21 T cell lines responded positively | positive T cell studies | – |
| DP II-22.22: DKELEAVFEANQNTKTAKIEIKK | – | No plasma samples contained IgE | all 21 T cell lines responded positively | positive T cell studies | – |
| DP II-22.23: DKELEAVFEANQNTKTAKIED | – | No plasma samples contained IgE | all 21 T cell lines responded positively | positive T cell studies | – |
| DP II-25.9: modified Der p II peptide (DKTVKVMGDDGVLACAIATHAKIRDKE) | – | No plasma samples contained IgE | all 21 T cell lines responded positively | positive T cell studies | – |
